Measurements from patent EP0427843B1, “SPECIFIC INHIBITOR FOR RETROVIRUS REVERSE TRANSCRIPTASE, AND ITS APPLICATION AS A MEDICAMENT” (BLOUGH, Herbert A., Dr., priority 1989, dated 1990).
Entries after “also recorded” stand apart in the source; their conditions may differ. Like-named read-outs stand apart in the source and are kept apart here.

Tests used:
[1] = target: T1, HIV-RT (Human immunodeficiency virus type 1 group M subtype B, UniProt P03366); format: biochemical; details: for effet inhibiteur sur la HIV1-RT: qualitative, autoradiogram, aurothiopropanol 0 à 2 mM (Figure 7), AZT 0,1 »M à 1 mM (Figure 8)
T1 construct: Transcriptase inverse: l'enzyme active du point de vue enzymatique, purifiée, clonée, a été préparée dans Escherichia coli; made in house; host or cells: Escherichia coli
Source text: (§1) Transcriptase inverse: l'enzyme active du point de vue enzymatique, purifiée, clonée, a été préparée dans Escherichia coli à l'aide de la technique précédemment décrite par Hizi A., McGill C., Hugues G., Proc. Natl. Acad. Sci. USA 85, 1218-1222 (1988). Le dosage de la R.T. a été effectuée à l'aide de matrice d'ADN (au hasard et avec des séquences HIV) et de primer(s) marqué(s) (brins d'initiation) par radioactivité. Après formation de complexes entre la matrice d'ADN et les primers, la R.T. a été ajoutée et incubée. Diverses concentrations d'inhibiteur ont été ajoutées soit avant soie après que le, ou les complexes, aient été formés. L'initiation et l'élongation de la chaîne ont été étudiées à l'aide de P.A.G.E. à 20% [Shane D.L., Goodman M.F., Echols N.A., Nucleic Acids Res. 16, 1218-1222 (1988] et les produits analysés par autoradiographie. Différentes matrices et conditions ont été utilisées pour distinguer ces fonctions. En outre, de la R.T. disponible dans le commerce provenant du virus de myéloblastose aviaire a été également utilisée.
(§2) Le dosage de l'effet des inhibiteurs sur la R.T. était le suivant: • A) On prépare un mélange réactionnel de […] contenant: • . ADN matrice 10⁻⁸M • . ADN primer 4 x 10⁻¹⁰M/ADN primer 5' [³²P] • . 2 »l de tampon HIV-RT ([10x] (500 mM Tris-HCl • . pH 7,8; 60 mM MgCl₂; 10 mM dithiothréitol; 500 mM KCl); et • . de l'eau bidistillée pendant […] à 37°C. • B) On ajoute 1 unité de HIV-RT (une unité correspond à l'activité enzymatique qui incorpore 1 nmol de [³H] TMP en produit insoluble dans l'acide en 10 mn à 37°C avec du poly(A)-(dT)₁₅ comme substrat) pendant 10 min à 37°C. • C) On ajoute un mélange de désoxy nucléotide triphosphates (dXTPs) contenant 0,25 mM de chaque dXTP pour un volume de mélange final de 20 »l pendant 5 minutes à 37°C. • D) Pour tester le ou les inhibiteurs, diverses concentrations de ces produits (sous un volume constant) sont ajoutées (selon Etape B) au mélange des dXTPs. Le mélange réactionnel est incubé à 37°C pendant […]. • E) On fait cesser la réaction par de l'EDTA 10 nM dans le formamide à 90%. • F) Des échantillons sont chauffés à 90°C pendant 5 mn et les produits séparés par électrophorèse sur gels de Polyacrylamide à 20% en présence d'urée. • G) Les variations dans l'élongation, la synthèse, etc... sont détectées par autoradiographie et testées par comparaison avec des "témoins" sans inhibiteur.
Le mélange est incubé pendant 5 mn à 37°C. • dans le cas (c) l'enzyme, l'hybride primer-matrice et 2 des 4 désoxy-ribonucléotides sont ajoutés et incubés pendant 5 mn à 37°C.

[2] = system: AMV-RT; experiment: AMV reverse transcriptase inhibition, primer extension, PAGE and autoradiography; format: biochemical, virus de myéloblastose aviaire; details: for effet sur la R.T. (AMV): qualitative
Source text: as §1, §2

[3] = system: glycosylation de gp120 ou gp41; experiment: Effect on viral glycoprotein synthesis (glycosylation) in infected cells; format: cell-based, HIV-1; details: for minimal effective concentration: Human immunodeficiency virus 1, read-out: concentration efficace sur la glycosylation
Source text: Effets de médicaments sur la synthèse de glycoprotéines: des cellules CEM ou MT-4 ont été infectées par HIV-1; 4 heures après l'infection, une moitié des cellules a été marquées avec [2³H]Man ou [6³H]GlcNAc à 2,5-5,9 »Ci. Les milieux ont été changés et de l'inhibiteur frais (potentiel) et 2,5 »Ci (ou 5 »Ci) de l'isotope approprié ont été ajoutés. Les cellules ont été lysées à trois et sept jours après l'infection et les lysats cellulaires ont été clarifiées par centrifugation à 12 000 g; qp120 et gp41 ont été l'une et l'autre isolées par immunoprécipitation sur colonnes et les produits, analysés sur gels de polyacrylamide à 12% et fluorographie [Kumarasamy R & Blough H.A., Biochem. Biophys. Res. Commun. 109, 1108-1115 (1982)]. Les virus ont été récoltés et purifiés par centrifugation à vitesse contrôlée sur gradients préformés de citrate de sodium ou métrazamide à 5-40%, et analysés de façon similaire.

[4] = Cytotoxicity (cell doubling time, trypan blue exclusion); format: cell-based; details: human, alex and mt-4 cells; cytotoxic at concentrations exceeding the value; read-out: concentrations cytotoxiques
Source text: (§3) Il a également été montré que les composés de l'invention sont moins toxiques que leurs analogues de base, en mesurant, à l'aide du microscope photonique, le temps de duplication cellulaire et l'exclusion du bleu trypan.

[5] = system: cellules ALEX et MT-4; experiment: as above; format: cell-based
Source text: as §3

[6] = target: T2, DNA polymérase alpha de placenta humain (Homo sapiens, UniProt P09884); experiment: Effect on human DNA polymerase alpha; format: biochemical
T2 construct: la DNA polymérase alpha de placenta humain; tissue Dr Olga Lavrik, Novosibirsk (gift); host or cells: human placenta

[7] = target: T3, DNA polymérase alpha de foie de rat (Rattus norvegicus, UniProt O89042); experiment: Effect on rat DNA polymerase alpha; format: biochemical; details: partially purified enzyme; sensitive only above the value
T3 construct: la DNA polymérase alpha de foie de rat partiellement purifiée; tissue Dr A M de Recondo, Villejuif (gift); host or cells: rat liver
T3 sequence (O89042 1-1451): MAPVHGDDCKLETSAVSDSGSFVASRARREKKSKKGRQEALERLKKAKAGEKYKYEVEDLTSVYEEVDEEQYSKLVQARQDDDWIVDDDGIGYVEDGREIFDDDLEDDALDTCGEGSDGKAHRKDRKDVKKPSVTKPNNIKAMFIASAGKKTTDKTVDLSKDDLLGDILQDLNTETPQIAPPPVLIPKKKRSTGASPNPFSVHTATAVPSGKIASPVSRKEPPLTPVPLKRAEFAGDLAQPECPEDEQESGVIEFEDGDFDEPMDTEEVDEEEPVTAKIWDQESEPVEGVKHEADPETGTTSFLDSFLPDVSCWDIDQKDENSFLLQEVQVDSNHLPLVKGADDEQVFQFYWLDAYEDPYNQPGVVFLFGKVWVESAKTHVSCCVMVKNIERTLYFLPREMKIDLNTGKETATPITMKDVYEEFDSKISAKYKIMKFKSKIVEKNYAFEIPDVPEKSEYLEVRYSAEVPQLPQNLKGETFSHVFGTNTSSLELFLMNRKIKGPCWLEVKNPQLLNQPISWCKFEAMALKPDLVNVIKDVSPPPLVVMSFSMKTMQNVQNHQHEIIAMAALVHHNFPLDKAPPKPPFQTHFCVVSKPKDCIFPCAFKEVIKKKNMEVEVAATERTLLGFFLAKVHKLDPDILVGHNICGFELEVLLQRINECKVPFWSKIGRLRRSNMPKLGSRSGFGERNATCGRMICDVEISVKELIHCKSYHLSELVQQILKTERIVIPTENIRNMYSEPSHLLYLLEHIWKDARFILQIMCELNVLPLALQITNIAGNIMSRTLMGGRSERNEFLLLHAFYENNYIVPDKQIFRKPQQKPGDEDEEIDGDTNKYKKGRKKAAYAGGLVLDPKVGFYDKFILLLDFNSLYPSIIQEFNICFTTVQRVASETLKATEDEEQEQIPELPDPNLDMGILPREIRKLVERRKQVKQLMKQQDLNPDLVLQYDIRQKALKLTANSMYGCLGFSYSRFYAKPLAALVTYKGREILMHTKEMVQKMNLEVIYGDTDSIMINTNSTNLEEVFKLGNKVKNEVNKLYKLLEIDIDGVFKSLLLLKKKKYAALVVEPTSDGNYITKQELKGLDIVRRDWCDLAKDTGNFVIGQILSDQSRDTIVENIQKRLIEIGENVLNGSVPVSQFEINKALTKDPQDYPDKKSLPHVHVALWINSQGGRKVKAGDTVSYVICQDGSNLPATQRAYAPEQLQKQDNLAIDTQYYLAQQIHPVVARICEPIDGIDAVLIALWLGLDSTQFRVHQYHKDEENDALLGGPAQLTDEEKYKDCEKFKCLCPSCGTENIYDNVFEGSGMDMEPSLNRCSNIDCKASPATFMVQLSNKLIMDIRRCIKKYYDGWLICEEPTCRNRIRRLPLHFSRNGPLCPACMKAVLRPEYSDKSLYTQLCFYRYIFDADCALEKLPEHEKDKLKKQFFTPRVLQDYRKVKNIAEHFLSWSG

[8] = target: T4, DNA polymérase I de Escherichia coli (Escherichia coli, UniProt P00582); experiment: Effect on E. coli DNA polymerase I; format: biochemical
T4 construct: purchased BRL

[9] = target: association enzyme-matrice (HIV1-RT / hybride primer-matrice) (Human immunodeficiency virus type 1 group M subtype B, UniProt P03366); details: enzyme 0,15 nM à 1nM; aurothioglucose 0,1 »M à 100 »M
Source text: On aussi effectué la filtration de l'enzyme et de l'hybride primeur-matrice en présence de concentration croissante de l'aurothioglucose. Les conditions expérimentales sont celles décrites précédemment.

T2 sequence (P09884 whole entry): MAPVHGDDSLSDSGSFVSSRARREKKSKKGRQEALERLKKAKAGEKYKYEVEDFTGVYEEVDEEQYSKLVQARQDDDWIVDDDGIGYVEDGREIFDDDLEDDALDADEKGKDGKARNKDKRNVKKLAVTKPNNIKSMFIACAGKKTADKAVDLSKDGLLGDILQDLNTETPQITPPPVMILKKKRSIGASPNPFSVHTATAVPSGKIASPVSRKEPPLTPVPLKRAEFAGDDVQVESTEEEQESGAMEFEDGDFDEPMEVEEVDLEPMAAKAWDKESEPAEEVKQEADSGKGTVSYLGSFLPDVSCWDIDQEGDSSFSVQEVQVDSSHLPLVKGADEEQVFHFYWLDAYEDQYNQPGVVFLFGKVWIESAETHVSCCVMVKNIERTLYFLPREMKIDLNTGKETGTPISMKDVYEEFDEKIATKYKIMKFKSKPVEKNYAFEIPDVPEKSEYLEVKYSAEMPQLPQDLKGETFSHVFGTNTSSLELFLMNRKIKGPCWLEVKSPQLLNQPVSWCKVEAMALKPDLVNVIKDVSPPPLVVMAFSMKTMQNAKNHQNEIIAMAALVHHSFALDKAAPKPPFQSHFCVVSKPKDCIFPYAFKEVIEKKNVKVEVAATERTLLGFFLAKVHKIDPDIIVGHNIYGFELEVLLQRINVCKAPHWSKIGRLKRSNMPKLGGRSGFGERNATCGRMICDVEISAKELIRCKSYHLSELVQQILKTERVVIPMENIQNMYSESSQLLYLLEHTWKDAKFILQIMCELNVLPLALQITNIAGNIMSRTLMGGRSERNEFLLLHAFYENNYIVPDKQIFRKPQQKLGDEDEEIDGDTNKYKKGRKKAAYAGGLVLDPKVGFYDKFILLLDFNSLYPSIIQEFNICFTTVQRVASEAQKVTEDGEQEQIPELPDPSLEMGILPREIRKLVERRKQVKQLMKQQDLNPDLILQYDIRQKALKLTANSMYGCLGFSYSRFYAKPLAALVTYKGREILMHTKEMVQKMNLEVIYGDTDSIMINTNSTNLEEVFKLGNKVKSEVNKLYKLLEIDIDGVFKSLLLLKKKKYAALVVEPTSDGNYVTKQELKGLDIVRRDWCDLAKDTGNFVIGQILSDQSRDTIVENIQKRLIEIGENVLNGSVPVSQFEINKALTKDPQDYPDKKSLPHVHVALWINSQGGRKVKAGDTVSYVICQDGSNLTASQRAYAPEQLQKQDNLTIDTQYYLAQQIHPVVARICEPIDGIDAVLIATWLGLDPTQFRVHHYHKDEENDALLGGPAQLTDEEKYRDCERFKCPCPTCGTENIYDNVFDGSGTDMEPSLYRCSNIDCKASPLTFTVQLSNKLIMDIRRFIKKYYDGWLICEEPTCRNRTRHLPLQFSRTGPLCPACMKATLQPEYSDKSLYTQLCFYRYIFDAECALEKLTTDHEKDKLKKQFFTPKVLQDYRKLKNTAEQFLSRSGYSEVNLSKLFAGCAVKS
T2 sequence (Q14181 whole entry partner): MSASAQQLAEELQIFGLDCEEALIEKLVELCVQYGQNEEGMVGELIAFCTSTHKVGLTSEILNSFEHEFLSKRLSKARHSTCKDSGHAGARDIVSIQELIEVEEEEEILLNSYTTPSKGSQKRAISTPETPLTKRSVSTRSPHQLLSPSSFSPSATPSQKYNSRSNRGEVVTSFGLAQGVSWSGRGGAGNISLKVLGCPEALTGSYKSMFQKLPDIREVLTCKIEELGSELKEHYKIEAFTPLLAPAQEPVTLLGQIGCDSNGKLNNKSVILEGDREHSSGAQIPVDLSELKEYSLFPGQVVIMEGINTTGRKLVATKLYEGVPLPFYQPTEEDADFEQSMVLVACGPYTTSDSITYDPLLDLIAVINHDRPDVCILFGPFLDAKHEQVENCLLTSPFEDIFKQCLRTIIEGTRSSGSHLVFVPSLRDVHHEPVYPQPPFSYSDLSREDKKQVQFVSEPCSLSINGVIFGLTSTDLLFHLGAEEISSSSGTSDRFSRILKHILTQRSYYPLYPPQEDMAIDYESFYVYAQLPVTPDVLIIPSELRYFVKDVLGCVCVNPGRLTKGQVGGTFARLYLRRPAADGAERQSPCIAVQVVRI
T2 sequence (P49642 whole entry partner): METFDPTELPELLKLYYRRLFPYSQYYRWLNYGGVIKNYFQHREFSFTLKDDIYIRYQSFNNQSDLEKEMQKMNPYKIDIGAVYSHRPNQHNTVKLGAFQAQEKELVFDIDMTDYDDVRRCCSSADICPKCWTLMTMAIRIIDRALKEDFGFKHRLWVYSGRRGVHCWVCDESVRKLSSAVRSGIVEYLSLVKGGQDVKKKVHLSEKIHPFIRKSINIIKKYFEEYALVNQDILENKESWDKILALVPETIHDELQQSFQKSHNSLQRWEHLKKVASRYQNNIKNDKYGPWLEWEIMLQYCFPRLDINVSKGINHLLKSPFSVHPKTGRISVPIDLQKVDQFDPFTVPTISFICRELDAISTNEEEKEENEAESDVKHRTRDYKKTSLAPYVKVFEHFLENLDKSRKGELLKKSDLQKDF
T2 sequence (P49643 whole entry partner): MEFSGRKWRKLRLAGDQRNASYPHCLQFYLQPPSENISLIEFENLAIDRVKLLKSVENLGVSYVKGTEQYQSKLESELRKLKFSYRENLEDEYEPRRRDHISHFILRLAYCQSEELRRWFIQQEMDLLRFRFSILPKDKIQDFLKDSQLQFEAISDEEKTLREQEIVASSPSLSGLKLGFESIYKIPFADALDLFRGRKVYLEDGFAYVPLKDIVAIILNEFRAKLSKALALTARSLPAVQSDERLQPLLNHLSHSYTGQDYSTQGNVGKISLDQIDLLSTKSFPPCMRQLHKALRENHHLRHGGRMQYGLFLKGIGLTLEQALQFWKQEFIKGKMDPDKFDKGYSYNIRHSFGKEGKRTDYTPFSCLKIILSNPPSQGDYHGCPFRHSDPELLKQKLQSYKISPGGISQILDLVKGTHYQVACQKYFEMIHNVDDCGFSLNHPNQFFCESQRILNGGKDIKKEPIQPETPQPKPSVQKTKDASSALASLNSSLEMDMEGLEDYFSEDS
T4 sequence (P00582 whole entry): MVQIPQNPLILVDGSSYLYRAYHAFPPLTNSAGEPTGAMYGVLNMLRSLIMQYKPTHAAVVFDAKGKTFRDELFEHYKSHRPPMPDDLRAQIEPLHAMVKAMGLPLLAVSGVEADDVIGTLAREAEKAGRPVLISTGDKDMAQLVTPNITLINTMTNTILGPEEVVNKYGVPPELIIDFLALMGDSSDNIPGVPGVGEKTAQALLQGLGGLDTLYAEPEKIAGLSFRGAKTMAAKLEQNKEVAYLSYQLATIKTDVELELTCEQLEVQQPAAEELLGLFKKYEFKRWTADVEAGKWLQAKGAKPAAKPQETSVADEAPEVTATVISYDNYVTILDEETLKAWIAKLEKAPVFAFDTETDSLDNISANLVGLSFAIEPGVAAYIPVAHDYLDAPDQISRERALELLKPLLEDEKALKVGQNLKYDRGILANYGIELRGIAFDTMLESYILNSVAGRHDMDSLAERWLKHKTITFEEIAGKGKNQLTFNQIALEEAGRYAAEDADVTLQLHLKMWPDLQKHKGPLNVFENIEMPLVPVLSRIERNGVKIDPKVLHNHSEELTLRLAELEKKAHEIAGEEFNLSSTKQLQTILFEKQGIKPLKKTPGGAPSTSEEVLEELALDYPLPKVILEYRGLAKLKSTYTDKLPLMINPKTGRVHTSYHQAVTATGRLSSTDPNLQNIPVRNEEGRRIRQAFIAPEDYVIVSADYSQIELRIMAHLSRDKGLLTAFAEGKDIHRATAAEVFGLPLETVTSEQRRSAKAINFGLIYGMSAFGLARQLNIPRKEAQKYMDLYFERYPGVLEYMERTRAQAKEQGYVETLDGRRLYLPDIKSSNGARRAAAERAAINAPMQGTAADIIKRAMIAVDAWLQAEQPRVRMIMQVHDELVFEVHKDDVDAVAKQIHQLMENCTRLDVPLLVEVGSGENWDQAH

## aurothiopropanol
[1]
  effet inhibiteur sur la HIV1-RT: inhibition; also recorded: effet inhibiteur

## OC[C@H]1S[C@@H](O)[C@H](O)[C@@H](O)[C@@H]1O [5-thioglucose, 5-bêta-D-thioglucose]
[1]
  effet inhibiteur sur la HIV1-RT: n'ont pas présenté d'effet
[1]; listed as 5-bêta-D-thioglucose
  effet inhibiteur sur la HIV1-RT: aucun effet
[2]
  effet sur la R.T. (AMV): n'ont pas présenté d'effet
[3]
  activité à l'encontre de la glycosylation de gp120 ou gp41: actifs
  minimal effective concentration: ~0.0035 µM
[4]
  MCC: > 2 mM
[5]
  toxicité vis-à-vis des cellules: trop toxiques

## OC[C@H]1O[C@@H]([S][Au])[C@H](O)[C@@H](O)[C@@H]1O [1-aurothioglucose, 1-bêta-D-aurothioglucose]
[1]; RNA templates compared with DNA templates, Figure 3
  inhibition en utilisant des matrices d'ARN: résultats comparables
[1]; cases (b) and (c) compared
  sensibilité de l'enzyme complexée à la matrice (b) et en phase d'élongation (c): la même sensibilité
[1]; combined with zidovudine (AZT)
  effets combinés de la zidovudine (AZT) et de l'aurothioglucose: additifs et qu'il existe une action synergique
[1]; complexe HIV-R.T.-Substrat à 40 nm, Figure 1
  quantité efficace pour bloquer le complexe HIV-R.T.-Substrat: 3 »m
[1]; free enzyme, case (a), compared with cases (b) and (c)
  diminution de la constante d'inhibition (Ki): 33%
[1]; qualitative comparison
  activité par rapport à l'AZT triphosphate: considérablement plus actif
[2]; Figure 5, lane 2, added after polymerisation of six nucleotides
  effet sur l'élongation des chaînes d'ADN par l'AMV-RT: inhibition de l'élongation de la chaîne
[2]; compared with HIV-RT, Figure 2
  concentrations nécessaires pour bloquer AMV-RT: concentrations supérieures
[6]; in vitro
  activité inhibitrice sur les DNA polymèrases humaines: activité inhibitrice faible
[6]; insensitive at concentrations lower than or equal to the value
  concentration en drogue à laquelle la polymérase est sensible: > 1 mM
[7]
  concentration en aurothioglucose à laquelle la polymérase est sensible: > 100 µM
[8]; Figure 6, autoradiogram
  inhibition de la DNA-polymérase-1 d'Escherichia Coli: inhibition
[8]; sensitive above the value
  concentration en aurothioglucose à laquelle la polymérase est sensible: > 50 µM
[9]
  association enzyme-matrice: affaiblie

## OC[C@H]1O[C@@H](S)[C@H](O)[C@@H](O)[C@@H]1O [1-thioglucose, 1-bêta-D-thioglucose]
[1]
  effet inhibiteur sur la HIV1-RT: n'ont pas présenté d'effet
[1]; listed as 1-bêta-D-thioglucose
  effet inhibiteur sur la HIV1-RT: aucun effet
[2]
  effet sur la R.T. (AMV): n'ont pas présenté d'effet
[3]
  activité à l'encontre de la glycosylation de gp120 ou gp41: actifs
  minimal effective concentration: ~0.0035 µM
[4]
  MCC: > 2 mM
[5]
  toxicité vis-à-vis des cellules: trop toxiques

## Cc1cn([C@H]2C[C@H](N=[N+]=[N-])[C@@H](COP(=O)(O)OP(=O)(O)OP(=O)(O)O)O2)c(=O)[nH]c1=O [AZT phosphorylé, 3'-Azido-DTTP, reference compound]
[1]
  effet inhibiteur sur la HIV1-RT: inhibition
